Assay results: ChEMBL document CHEMBL2311389, “Pyrazole-based arylalkyne cathepsin S inhibitors. Part III: modification of P4 region” (Bioorg Med Chem Lett, 2013); call rule not given here
Values after ≈ are worked out from the molar mass of the structure shown.

Key:
[1] = Equilibrium solubility in pH 7.0 phosphate buffer by LC/MS method; format: physicochemical
[2] = molecular target: T1, Cathepsin S (Homo sapiens, UniProt P25774); assay: Inhibition of cathepsin S in human JY cells assessed as invariant chain-li degradation; format: cell-based
[3] = molecular target: T1, Cathepsin S; assay: Inhibition of human cathepsin S
[4] = molecular target: Voltage-gated inwardly rectifying potassium channel KCNH2 (Homo sapiens, UniProt Q12809); assay: Inhibition of human ERG by patch clamp assay
Voltage-gated inwardly rectifying potassium channel KCNH2, sequence (Q12809 whole entry): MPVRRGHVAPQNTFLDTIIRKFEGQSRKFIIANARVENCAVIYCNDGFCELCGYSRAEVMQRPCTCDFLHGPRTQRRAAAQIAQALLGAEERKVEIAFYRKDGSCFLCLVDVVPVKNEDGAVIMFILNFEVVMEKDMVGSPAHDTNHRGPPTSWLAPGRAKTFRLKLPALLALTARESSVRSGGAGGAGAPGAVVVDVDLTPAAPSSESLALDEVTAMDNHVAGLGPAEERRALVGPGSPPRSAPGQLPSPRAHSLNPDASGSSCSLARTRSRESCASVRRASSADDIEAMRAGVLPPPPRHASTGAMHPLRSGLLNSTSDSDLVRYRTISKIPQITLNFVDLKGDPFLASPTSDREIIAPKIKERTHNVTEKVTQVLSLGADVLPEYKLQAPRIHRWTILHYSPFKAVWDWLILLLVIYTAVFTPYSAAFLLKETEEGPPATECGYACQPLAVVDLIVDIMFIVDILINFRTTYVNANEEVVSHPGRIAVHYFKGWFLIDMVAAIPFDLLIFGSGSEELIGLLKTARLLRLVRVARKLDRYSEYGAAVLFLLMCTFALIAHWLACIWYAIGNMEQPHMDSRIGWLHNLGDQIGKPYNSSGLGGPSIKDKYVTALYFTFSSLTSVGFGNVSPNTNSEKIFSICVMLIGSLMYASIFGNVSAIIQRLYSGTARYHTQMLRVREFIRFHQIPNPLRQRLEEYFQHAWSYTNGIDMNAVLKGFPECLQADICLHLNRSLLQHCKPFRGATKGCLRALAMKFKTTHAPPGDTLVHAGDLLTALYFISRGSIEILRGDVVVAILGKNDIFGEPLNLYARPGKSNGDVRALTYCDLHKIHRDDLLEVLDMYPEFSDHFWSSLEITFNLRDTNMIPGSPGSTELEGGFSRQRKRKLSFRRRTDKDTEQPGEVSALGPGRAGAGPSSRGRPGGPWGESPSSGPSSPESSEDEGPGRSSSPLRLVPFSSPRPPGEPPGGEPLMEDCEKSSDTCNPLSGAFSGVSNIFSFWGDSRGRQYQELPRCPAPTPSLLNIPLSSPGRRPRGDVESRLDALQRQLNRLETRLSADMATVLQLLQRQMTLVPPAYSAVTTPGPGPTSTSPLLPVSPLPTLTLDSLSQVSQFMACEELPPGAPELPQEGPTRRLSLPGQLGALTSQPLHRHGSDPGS

T1 sequence (P25774 whole entry): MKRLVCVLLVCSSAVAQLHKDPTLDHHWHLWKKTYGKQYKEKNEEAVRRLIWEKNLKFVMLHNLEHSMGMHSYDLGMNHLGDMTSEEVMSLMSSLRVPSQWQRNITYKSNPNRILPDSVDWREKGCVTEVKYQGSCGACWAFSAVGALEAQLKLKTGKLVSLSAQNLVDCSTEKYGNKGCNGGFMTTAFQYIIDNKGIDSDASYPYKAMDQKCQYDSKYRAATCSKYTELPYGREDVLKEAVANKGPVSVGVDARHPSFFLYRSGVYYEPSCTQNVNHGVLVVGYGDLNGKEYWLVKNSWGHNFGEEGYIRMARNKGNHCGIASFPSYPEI

solubility thermodynamic [1]	IC50 [2]	IC50 [3]	SMILES	inhibition (INH) [4]
< 1 µM	–	–	NC(=O)C(=O)N1CCc2c(c(-c3ccc(C(F)(F)F)c(SCCN4CCC(F)CC4)c3)nn2C[C@@H](O)CN2CCCCC2)C1	–
66 µM (≈ 44 µg/mL)	630 nM	–	NC(=O)N1CCc2c(c(-c3ccc(Cl)c(C#Cc4ccc(Cl)c(C(=O)N5CCNCC5)c4)c3)nn2CCCN2CCSCC2)C1	–
< 1 µM	560 nM	10 nM	NC(=O)C(=O)N1CCc2c(c(-c3ccc(Cl)c(C#Cc4ccc(CNCc5ccc(Cl)cc5)cc4)c3)nn2CCCN2CCN(c3ccccc3)CC2)C1	–
< 1 µM	870 nM	70 nM	NC(=O)N1CCc2c(c(-c3ccc(Cl)c(C#Cc4ccc(CNCc5ccc(Cl)cc5)cc4)c3)nn2CCCN2CCSCC2)C1	Not Active
< 1 µM	270 nM	–	NC(=O)C(=O)N1CCc2c(c(-c3ccc(Cl)c(C#Cc4ccc(CNCc5ccc(Cl)cc5)cc4)c3)nn2CCCN2CCSCC2)C1	–
< 1 µM	960 nM	50 nM	C[C@@H]1COCCN1CCCn1nc(-c2ccc(Cl)c(C#Cc3ccc(CNCc4ccc(Cl)cc4)cc3)c2)c2c1CCN(C(=O)C(N)=O)C2	Not Active
–	> 10000 nM	–	NC(=O)N1CCc2c(c(-c3ccc(Cl)c(C#Cc4ccc(C(=O)NCc5ccc(Cl)cc5)cc4)c3)nn2CCCN2CCSCC2)C1	–
–	> 10000 nM	–	NC(=O)N1CCc2c(c(-c3ccc(Cl)c(C#Cc4ccc(C(=O)NCc5cccnc5)cc4)c3)nn2CCCN2CCSCC2)C1	–
81 µM (≈ 52.3 µg/mL)	> 10000 nM	–	NC(=O)N1CCc2c(c(-c3ccc(Cl)c(C#Cc4ccc(C(=O)NC[C@@H]5CCCN5)cc4)c3)nn2CCCN2CCSCC2)C1	–
–	> 10000 nM	–	NC(=O)N1CCc2c(c(-c3ccc(Cl)c(C#Cc4ccc(COCc5cccnc5)cc4)c3)nn2CCCN2CCSCC2)C1	–
175 µM (≈ 119 µg/mL)	620 nM	–	NC(=O)N1CCc2c(c(-c3ccc(Cl)c(C#Cc4ccc(Cl)c(C(=O)NC[C@@H]5CCCN5)c4)c3)nn2CCCN2CCSCC2)C1	–
9 µM (≈ 6.4 µg/mL)	610 nM	–	NC(=O)N1CCc2c(c(-c3ccc(Cl)c(C#Cc4ccc(Cl)c(C(=O)NCCN5CCOCC5)c4)c3)nn2CCCN2CCSCC2)C1	–
–	5000 nM	–	CN(C)S(=O)(=O)N1CCc2c(c(-c3ccc(Cl)c(C#Cc4ccc(CNCc5ccc(Cl)cc5)cc4)c3)nn2CCCN2CCOCC2)C1	–
–	1100 nM	–	CC(=O)NCC(=O)N1CCc2c(c(-c3ccc(Cl)c(C#Cc4ccc(CNCc5ccc(Cl)cc5)cc4)c3)nn2CCCN2CCOCC2)C1	–
< 1 µM	510 nM	60 nM	NC(=O)C(=O)N1CCc2c(c(-c3ccc(Cl)c(C#Cc4ccc(CNCc5ccc(Cl)cc5)cc4)c3)nn2CCCN2CCOCC2)C1	–
< 1 µM	1750 nM	–	CN(C)C(=O)C(=O)N1CCc2c(c(-c3ccc(Cl)c(C#Cc4ccc(CNCc5ccc(Cl)cc5)cc4)c3)nn2CCCN2CCOCC2)C1	–
–	200 nM	–	NC(=O)N1CCc2c(c(-c3ccc(Cl)c(C#Cc4ccc(CNCc5ccc(Cl)cc5)cc4)c3)nn2CCCN2CCCCC2)C1	–
–	300 nM	–	NC(=O)C(=O)N1CCc2c(c(-c3ccc(Cl)c(C#Cc4ccc(CNCc5ccc(Cl)cc5)cc4)c3)nn2CCCN2CCCCC2)C1	–
< 1 µM	690 nM	60 nM	NC(=O)N1CCc2c(c(-c3ccc(Cl)c(C#Cc4ccc(CNCc5ccc(Cl)cc5)cc4)c3)nn2CCCN2CCC(C(F)(F)F)CC2)C1	–
< 1 µM	1770 nM	–	NC(=O)C(=O)N1CCc2c(c(-c3ccc(Cl)c(C#Cc4ccc(CNCc5ccc(Cl)cc5)cc4)c3)nn2CCCN2CCC(C(F)(F)F)CC2)C1	–
–	710 nM	–	NC(=O)N1CCc2c(c(-c3ccc(Cl)c(C#Cc4ccc(CNCc5ccc(Cl)cc5)cc4)c3)nn2CCCN2CCN(c3ccccc3)CC2)C1	–
–	440 nM	–	NC(=O)N1CCc2c(c(-c3ccc(Cl)c(C#Cc4ccc(CNCc5ccc(Cl)cc5)cc4)c3)nn2CCCN2CCOCC2)C1	–
< 1 µM	–	–	CS(=O)(=O)N1CCc2c(c(-c3ccc(Cl)c(C#Cc4ccc(CNCc5ccc(Cl)cc5)cc4)c3)nn2CCCN2CCOCC2)C1	–
46 µM (≈ 29.9 µg/mL)	> 10000 nM	–	NC(=O)N1CCc2c(c(-c3ccc(Cl)c(C#Cc4ccc(COCC5CNCCO5)cc4)c3)nn2CCCN2CCSCC2)C1 (racemic)	–
–	510 nM	–	NC(=O)N1CCc2c(c(-c3ccc(Cl)c(C#Cc4ccc(Cl)c(C(=O)NCC5CCCNC5)c4)c3)nn2CCCN2CCSCC2)C1 (racemic)	–

SMILES	solubility thermodynamic [1]	IC50 [2]	IC50 [3]	inhibition (INH) [4]
C[C@@H]1COCCN1CCCn1nc(-c2ccc(Cl)c(C#Cc3ccc(CNCc4ccc(Cl)cc4)cc3)c2)c2c1CCN(C(N)=O)C2	3 µM (≈ 2.02 µg/mL)	1540 nM	110 nM	–
